In ChEMBL document CHEMBL1201862, “PubChem BioAssay data set” (2004):
Calls of active or inactive are those of the source.

Legend:
Format in all cases: functional
[1] = target: T1, High affinity choline transporter 1 (Homo sapiens, UniProt Q9GZV3); assay: human choline transporter blockers, potency – cell-based, 10-point CRC, membrane potential dye, dose response (AID 588401);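 note: membrane potential dye fluorescence of choline-evoked depolarization via CHT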
T1 sequence (Q9GZV3 whole entry): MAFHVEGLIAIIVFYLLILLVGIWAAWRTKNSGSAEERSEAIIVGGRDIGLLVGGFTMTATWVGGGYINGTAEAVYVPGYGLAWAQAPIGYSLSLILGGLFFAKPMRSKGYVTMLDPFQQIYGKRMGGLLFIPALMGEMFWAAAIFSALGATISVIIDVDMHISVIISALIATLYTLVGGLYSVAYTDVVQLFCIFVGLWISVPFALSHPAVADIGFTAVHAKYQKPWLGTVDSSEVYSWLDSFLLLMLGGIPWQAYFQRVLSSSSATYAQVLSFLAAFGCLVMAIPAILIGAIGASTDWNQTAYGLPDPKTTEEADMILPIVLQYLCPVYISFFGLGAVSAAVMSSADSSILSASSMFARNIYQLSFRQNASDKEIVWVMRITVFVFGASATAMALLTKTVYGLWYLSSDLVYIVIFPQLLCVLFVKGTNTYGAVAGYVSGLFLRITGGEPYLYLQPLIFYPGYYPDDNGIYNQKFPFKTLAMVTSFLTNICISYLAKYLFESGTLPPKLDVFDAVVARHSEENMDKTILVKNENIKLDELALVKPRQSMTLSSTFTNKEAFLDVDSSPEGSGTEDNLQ

[2] = Luminescence Cell-Based Dose Confirmation HTS to Identify Inhibitors of Platelet Dense Granule Release. [Related pubchem assays: 1663 (Primary HTS), 1678 (Summary of Project)]
[3] = target: T1, High affinity choline transporter 1; assay: human choline transporter blockers, potency – cell-based, 5-point CRC, membrane potential dye, dose response (AID 504840)

Nc1ncnc2c1ncn2[C@@H]1O[C@H](CO)[C@@H](O)[C@H]1O [ADENOSINE]
active: IC50 [1] 0.2 µM | EC50 [2] 0.759 µM | IC50 [3] 0.571 µM
